Measurements published in patent publication US8802597B2, “Herbicidal pyrimidines” (E I du Pont de Nemours and Company, priority 2003, dated 2014).

How the values were obtained:
Assay in all cases: Test C pre/postemergence
Type in all cases: in vivo
Details in all cases: Preemergence
[1] = test system: woolly cupgrass (Eriochloa villosa)
Outline: (§1)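 Percent control is a visual rating (0 none, 100 complete) taken against untreated plants after 12 to 14 days of greenhouse growth. Applications were made preemergence to seeded pots and postemergence to plants at the 1- to 4-leaf stage, in a non-phytotoxic surfactant-containing solvent.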

[2] = test system: eastern black nightshade (Solanum ptycanthum)
Outline: as §1

[3] = test system: morningglory (Ipomoea coccinea)
Outline: as §1

[4] = 62 g ai/ha, scale 0 to 100, 0 no effect, 100 complete control

| Structure (SMILES) | Plant response rating, Cupgrass, Woolly [1, 4] | Plant response rating, Cupgrass, Woolly ([1]; 125 g ai/ha, scale 0 to 100) | Plant response rating, Cupgrass, Woolly ([1]; 250 g ai/ha, scale 0 to 100) | Plant response rating, Cupgrass, Woolly ([1]; 500 g ai/ha, scale 0 to 100) | Plant response rating, Nightshade [2, 4] | Plant response rating, Nightshade ([2]; 125 g ai/ha, scale 0 to 100) | Plant response rating, Nightshade ([2]; 250 g ai/ha, scale 0 to 100) | Plant response rating, Nightshade ([2]; 500 g ai/ha, scale 0 to 100) | Plant response rating, Morningglory ([3]; 125 g ai/ha, scale 0 to 100) | Plant response rating, Morningglory ([3]; 250 g ai/ha, scale 0 to 100) | Plant response rating, Morningglory ([3]; 500 g ai/ha, scale 0 to 100) | Plant response rating, Morningglory [3, 4] |
| --- | --- | --- | --- | --- | --- | --- | --- | --- | --- | --- | --- | --- |
| CCOC(=O)c1nc(C2CC2)nc(N=CN(C)C)c1Br [Compound 40] | 5 | 5 | 70 | 95 | 100 | 100 | 100 | 100 | 90 | 90 | 100 |  |
| CCOC(=O)Cc1nc(C2CC2)nc(N=CN(C)C)c1Br [Compound 33] | 0 | 0 | 0 | 0 | 0 | 50 | 95 | 100 | 85 | 90 | 95 | 0 |
